According to article PMC12287315 (Nature Communications, 2025):

How the values were obtained:
[1] = system: GPR139-SmBit / β-arrestin2; test: NanoBiT β-arrestin2 recruitment assay; format: cell-based, human
[2] = system: GPR139-SmBit / β-arrestin1; test: NanoBiT β-arrestin1 recruitment assay; format: cell-based, human
[3] = system: HiBit-GPR139; test: HiBiT-GPR139 surface abundance / internalization assay, HEK293T/17 cells; conditions: 40 μM Dyngo-4a, 10 μM PitStop 2, 4 mM MβCD applied 15 min before; 40 μM Dyn A13; in words
[4] = system: GPR139 / Gα11; test: G protein BRET assay, Gα11 activation; format: cell-based, human; conditions: in words; for GPR139 coupling activity with Gα11: 10 µM
[5] = system: MHb neurons; format: cell-based, mouse
[6] = system: GPR139 / GαoA; test: G protein BRET assay, GαoA activation; format: cell-based, human; conditions: 10 µM; in words
[7] = target: T1, GPR139 (Homo sapiens, UniProt Q6DWJ6); test: CalFluxVTN BRET calcium assay, GPR139-transfected HEK293T/17 cells; format: cell-based; conditions: in words
T1 sequence (Q6DWJ6 1-353): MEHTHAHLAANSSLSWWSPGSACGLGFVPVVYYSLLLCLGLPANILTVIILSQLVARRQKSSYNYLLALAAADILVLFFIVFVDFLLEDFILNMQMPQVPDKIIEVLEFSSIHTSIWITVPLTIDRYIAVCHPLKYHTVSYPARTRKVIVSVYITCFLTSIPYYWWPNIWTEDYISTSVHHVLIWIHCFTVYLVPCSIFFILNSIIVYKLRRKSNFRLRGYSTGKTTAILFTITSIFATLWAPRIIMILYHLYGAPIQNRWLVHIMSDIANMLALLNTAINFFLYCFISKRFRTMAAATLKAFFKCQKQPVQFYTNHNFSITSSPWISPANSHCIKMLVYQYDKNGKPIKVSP

[8] = system: MHb neurons; test: Live calcium imaging; format: cell-based, mouse; conditions: in words
[9] = system: NAc neurons of Pdyn-Cre mice; format: cell-based, mouse; conditions: 10 μM JNJ-3792165; in words
[10] = target: T1, GPR139; format: binding; conditions: in words

## C[C@H](NC(=O)CNC(=O)c1cccc(Cl)c1)c1ccccc1 [JNJ-63533054]
[1]
  β-arrestin 2 recruitment to GPR139: did not observe recruitment of β-arrestins
[2]
  β-arrestin 1 recruitment to GPR139: did not observe recruitment of β-arrestins

## methyl-beta-cyclodextrin [MβCD]
[3]
  effect on Dyn A13-mediated GPR139 internalization: had no effect

## C=CCN1CC[C@]23c4c5ccc(O)c4O[C@H]2C(=O)CC[C@@]3(O)[C@H]1C5 [naloxone]
[4]; 100 µM Naloxone, 5 µM Dyn A17
  block of G protein activation by GPR139: did not block G protein activation by GPR139
[5]
  effect on Dyn A17 inhibition of neuronal firing: blocked

## α-MSH
[4]
  GPR139 coupling activity with Gα11: did not show any significant coupling activity
[6]
  GPR139 coupling activity with GαoA: did not show any significant coupling activity

## Cc1cccc(NC(=O)c2cc(C)n(Cc3c(Cl)cccc3Cl)n2)c1 [JNJ-3792165]
[7]; 10 μM JNJ-3792165
  effect of antagonist on peptide-induced Ca2+ responses: blocked
[8]
  effect on Dyn A17-induced Ca2+ response: completely blocked
[9]
  effect on jGCaMP7s response to optogenetic stimulation: completely abolished

## L-enk: inactive Leu-enkephalin as a negative control
[4]
  GPR139 coupling activity with Gα11: Neither did we observe G protein activation
[6]
  GPR139 coupling activity with GαoA: Neither did we observe G protein activation
[10]
  competition with [3H]-JNJ-63533054 binding: no competition

## adrenocorticotropic hormone (SYSMEHFRWGKPVGKKRRPVKVYPNGAEDESAEAFPLEF; Corticotropin; UniProt P01189 138-176, looked up) [ACTH]
[4]
  GPR139 coupling activity with Gα11: did not show any significant coupling activity
[7]; 10 μM, 3 independent experiments
  CalFluxVTN signal compared to control cells not expressing GPR139: significant signals
[6]
  GPR139 coupling activity with GαoA: did not show any significant coupling activity
[10]
  competition with [3H]-JNJ-63533054 binding: only modest binding
